Test results from PubChem BioAssay AID720588 (Broad Institute, 2013).
Calls of active or inactive are those of the source.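 The calls were made as follows: active = fitted curve falls past a set limit of signal loss at no more than twice the top dose; inconclusive = flat fit between 30 and 70% signal loss, or poor fit; inactive = signal rise, flat within 30%, or crossing too high.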

assay: HEK293T cell cytotoxicity, dose response, cytotoxicity control, CellTiter-Glo luminescence, cherry-pick, set 3 (AID 720588); conditions: HEK293T viability, CellTiter-Glo ATP luminescence, 72 h; at 2.85 µM (top of the series)

| SMILES | activity change, negative = cytotoxicity |
| --- | --- |
| COC(=O)C[C@@H]1CC[C@@H]2[C@H](COc3ccc(NC(=O)Nc4cccc(Cl)c4)cc3C(=O)N2C)O1 | 39.1% (inactive) |

same assay, conditions: HEK293T viability, CellTiter-Glo ATP luminescence, 72 h; at 21 µM (top of the series)

| SMILES | activity change, negative = cytotoxicity |
| --- | --- |
| COc1ccc(S(=O)(=O)Nc2cccc3c2O[C@H](CN(C)Cc2ccc(C(=O)Nc4ccccc4N)cc2)[C@H](C)CN([C@@H](C)CO)C3=O)cc1 | -18.8% (inactive) |
| COc1ccc(CN(C)C[C@H]2Oc3ccc(NC(=O)CCCCCC(=O)Nc4ccccc4N)cc3CC(=O)N([C@H](C)CO)C[C@H]2C)cc1 | -29.4% (inactive) |

same assay, conditions: HEK293T viability, CellTiter-Glo ATP luminescence, 72 h; at 23.5 µM (top of the series)

| SMILES | activity change, negative = cytotoxicity |
| --- | --- |
| C[C@@H]1CN([C@@H](C)CO)C(=O)c2cccc(NC(=O)Nc3cccc4ccccc34)c2O[C@@H]1CN(C)Cc1ccc(C(=O)Nc2ccccc2N)cc1 | -11.5% (inactive) |
| COC(=O)C[C@@H]1CC[C@H]2[C@H](COc3ccc(NC(=O)Nc4ccc(C#N)cc4)cc3C(=O)N2C)O1 | 17.6% (inactive) |
| COC(=O)C[C@@H]1CC[C@@H]2[C@H](COc3ccc(NC(=O)c4cccc(Cl)c4)cc3C(=O)N2C)O1 | -19.6% (inactive) |

same assay, conditions: HEK293T viability, CellTiter-Glo ATP luminescence, 72 h; at 26 µM (top of the series)

| SMILES | activity change, negative = cytotoxicity |
| --- | --- |
| COC(=O)C[C@@H]1CC[C@@H]2[C@H](COc3ccc(NC(=O)c4ccccc4)cc3C(=O)N2C)O1 | 41.2% (inactive) |
| COc1cc(/C=C/C(=O)/C=C(O)/C=C/c2ccc(O)c(OC)c2)ccc1O | -35.9% (inactive) |
| O=C(C1CC1)N1C[C@@H]2N[C@H](C1)C2c1ccc(/C=C/c2ccccc2)cc1 (some centres not stated) | -31.7% (inactive) |
| CCOC(=O)Cc1ccc(NC(=O)c2ccccc2Br)cc1 | -14.3% (inactive) |
| C[C@H](CO)N1C[C@H](C)[C@H](CN(C)Cc2ccc(Oc3ccccc3)cc2)Oc2ccc(NC(=O)CCCCCC(=O)Nc3ccccc3N)cc2CC1=O | -19.4% (inactive) |
| O=c1c2ccccc2oc2ccc(C#CC3(O)CCCCC3)cc12 | -6.65% (inactive) |
| c1cncc(-c2ccc([C@@H]3[C@H]4CNC[C@@H]3N4CC3CCOCC3)cc2)c1 | 61.9% (inactive) |
| N#C[C@H]1N[C@H](CO)[C@H]1c1ccc(C#Cc2ccc(F)cc2)cc1 | -13% (inactive) |
| O=C(c1cccc(S(=O)(=O)NCc2ccccc2)c1)N1CCN(c2ccccc2)CC1 | -21.2% (inactive) |
| COc1ccc(C2=NNC(=Nc3cc(S(=O)(=O)N(C)C)ccc3C)SC2)c(OC)c1 | -17.5% (inactive) |
| CC(=O)Nc1ccc(OCC(=O)N(CC(C)C)C2CCS(=O)(=O)C2)cc1 (configuration not stated) | 10.7% (inactive) |
| CCOc1cc(N2CCC(O)CC2)ccc1Nc1ncc2c(n1)N(C)c1ccccc1C(=O)N2C | 22.8% (inactive) |
| CN(C(=O)COC(=O)c1cc(-c2ccccc2Cl)nc2ccccc12)C1CCS(=O)(=O)C1 (configuration not stated) | -26.1% (inactive) |
| CCC1=Nc2cc(C(=O)NCC3CCCO3)ccc2Sc2ccc(Br)cc21 (configuration not stated) | -27.1% (inactive) |
| Cc1cc(C(=O)Nc2ccc3c(c2)C(=O)N(C)[C@@H]2CC[C@H](CC(=O)N[C@H](C)c4ccccc4)O[C@H]2CO3)no1 | 8.37% (inactive) |
| COc1ccc(C(CCNCc2ccc(OC(C)C)cc2)C(C)C)cc1 (configuration not stated) | -12.5% (inactive) |

| SMILES | activity change, negative = cytotoxicity |
| --- | --- |
| O=C(O)c1ccccc1C(=O)Nc1ccc(Oc2ccc3ccccc3c2)cc1 | -15.8% (inactive) |
| CCCC[C@@H]1Cc2[nH][nH]c(=O)c2[C@H](c2ccc3ccccc3c2)O1 | 16.6% (inactive) |
| CC(C)(C)[S@](=O)N1Cc2cc(C(=O)NCC(F)(F)F)nc(-c3cccc(-c4cccc(F)c4)c3)c2[C@@H]1CCO | -2.37% (inactive) |
| O=C(COC(=O)c1ccc[nH]c1=O)Nc1ccc(N2CCCCC2)cc1 | -10.3% (inactive) |
| CCOC(=O)c1c(-c2ccc(C)cc2)csc1NC(=O)CCN1CCOCC1 | 5.98% (inactive) |
| Cc1ccc(S(=O)(=O)N(C)C[C@@H]2Oc3cc(C#Cc4ccncc4)ccc3S(=O)(=O)N([C@@H](C)CO)C[C@H]2C)cc1 | -17% (inactive) |
| C/C(=N\N(c1ccccc1)c1ccccc1)c1ccco1 | -14.9% (inactive) |
| COc1ccc(NC(=O)N2CCCCN3[C@H](CO)[C@H](c4ccc(C#CCC(C)C)cc4)[C@H]3C2)cc1 | -56.2% (inactive) |
| COc1cc(C(=O)N2CCC(N3CCN(C)CC3)CC2)ccc1Nc1ncc2c(n1)N(C)c1ccccc1C(=O)N2C | -1.13% (inactive) |
| COc1ccc(-c2nc3c(s2)CCc2onc(-c4ccc(OC)cc4)c2-3)cc1 | -17.8% (inactive) |
| Cc1ccc2c(=O)n3c(nc2c1)C(Cc1ccc(O)cc1)NC(=O)c1cc2ccccc2cc1-3 (configuration not stated) | -16.8% (inactive) |
| O=C(NC(=O)c1ccccc1)Nc1ccccc1 | -31.5% (inactive) |
| CCCCNC1=CC(=O)C(=O)c2ccccc21 | -32.1% (inactive) |
| CC(=O)c1ccc(N=Nc2ccc(C)cc2)cc1 | -17% (inactive) |
| COc1cccc(OC)c1C(=O)Nc1cc(C)nn1-c1nc2ccccc2[nH]1 | -11.9% (inactive) |
